Where two headings read alike, the source gives them in different places.
Assays:
U937 (hCE-1 +ve) cells = assay: Proliferation assay, U937 cells; format: cell-based, human; conditions: for IC50: Homo sapiens, U-937, U937, 72 hours, WST-1, read-out: Proliferation assay: Inhibition of U937 (hCE-1 +ve) cell proliferation IC50
Protocol: (§1) Cells are seeded in 96 well tissue culture plates (1 well=30 mm^2) at an appropriate density (2000 cells per well for U937 cells, 2250 cells per well for HUT-78 and MINO cells) in 50 μl of culture medium (see below for details). 24 Hours later 50 μl of the compound prepared in the same medium is added as 3 fold dilutions to give final concentrations in the range 5-10,000 nM (n=6 for each concentration). The plates are then incubated at 37° C., 5% CO2 for 72 hours. Cell proliferation is assessed using WST-1 (a metabolic indicator dye, Roche Cat no. 11644807001) according to the manufacturer's instructions. The results are calculated as a percentage of vehicle response and plotted as a dose-response curve. IC50 values represent the concentration of compound that inhibits the vehicle response by 50%.
(§2) Culture medium for U937 and RUT-78 cells is RPMI1640 (Sigma R0883) with 10% heat inactivated fetal calf serum (Hyclone SH30071, Perbio), plus 2 mM glutamine (Sigma G7513) and 50 U/ml penicillin and streptomycin sulphate (Sigma P0781). MINO cell culture medium is as for U937 and HUT-78 but supplemented with sodium pyruvate (Sigma S8636) to a final concentration of 1 mM.

[1] = test system: TNFα release from LPS stimulated THP-1 (hCE-1 +ve) cells; assay: LPS-stimulation of THP-1 cells (TNF-α release); format: cell-based, human
How it was run: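 THP-1 cells at 4×10^4 per well were pre-incubated for 16 h, then exposed to inhibitor for 2 h before stimulation with 1 μg/ml LPS for 6 h at 37 °C. TNF-α in cell-free supernatants was measured by sandwich ELISA.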

Hut78 (hCE-1 -ve) cells = assay: Proliferation assay, Hut78 cells; format: cell-based, human; conditions: for IC50: Homo sapiens, Hut78, 72 hours, WST-1, read-out: Proliferation assay: Inhibition of Hut78 (hCE-1 -ve) cell proliferation IC50
Protocol: as §1, §2

[2] = target: T1, human recombinant his-tagged HSP90α (Homo sapiens, UniProt P07900); assay: HSP90 enzyme assay (HTRF, competition with biotinylated Geldanamycin); format: binding
T1 construct: purchased Prospec Technogene #HSP90
How it was run: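 HTRF competition: compounds (5000 to 0.3 nM, 0.5% DMSO) displace 40 nM biotinylated geldanamycin from 40 nM his-tagged HSP90α. Binding was read via Eu-cryptate anti-his/streptavidin-XL FRET after 20 h at room temperature in Hepes pH 7.3 buffer. IC50 was fitted against controls.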

[3] = test system: TNF-α levels in LPS-stimulated human whole blood; assay: LPS-stimulation of human whole blood (TNF-α levels); format: cell-based; conditions: IC50 range, TNF-α after LPS 100 ng/ml, 6 hours
Protocol: Whole blood is taken by venous puncture using heparinised vacutainers (Becton Dickinson) and diluted in an equal volume of RPMI1640 tissue culture media (Sigma). 100 μl is then plated in V-bottomed 96 well tissue culture treated plates. 2 Hours after the addition of the inhibitor in 100 μl of RPMI1640 media, the blood is stimulated with LPS (E. Coli strain 005:B5, Sigma) at a final concentration of 100 ng/ml and incubated at 37° C. in 5% CO2 for 6 hours. TNF-α levels are measured from cell-free supernatants by sandwich ELISA (R&D Systems #QTA00B).

[4] = Homo sapiens, THP-1, read-out: THP-1 assay: Inhibition of TNFα release from LPS stimulated THP-1 (hCE-1 +ve) cells (IC50 nM)
[5] = compound as drawn (ester for the ester compound), read-out: Enzyme assay: Inhibition of Hsp90 (IC50 nM)
[6] = Homo sapiens, THP-1, IC50 range, TNF-α after LPS 1 μg/ml, 6 hours, read-out: THP-1 Assay
[7] = IC50 range, read-out: Enzyme Assay
[8] = IC50 range, TNF-α after LPS 1 μg/ml, 6 hours, read-out: THP-1 Assay

| Molecule | IC50 ([3]; Homo sapiens) | IC50 [1, 6] | IC50 [2, 7] | other results |
| --- | --- | --- | --- | --- |
| CC1CCN(C(=O)c2cc(C(C)C)c(O)cc2O)CC1 [CHR-7310, reference compound] | – | – | – | IC50 (U937 (hCE-1 +ve) cells): 0.2 µM; IC50 [1, 4]: 476 nM; IC50 (Hut78 (hCE-1 -ve) cells): 0.145 µM; Ratio of IC50's of Hut78 to U937 cells (Hut78 (hCE-1 -ve) cells): ~1; IC50 [2, 5]: 8 nM |
| CC(C)c1cc(C(=O)N2CCC(N[C@@H](COC(C)(C)C)C(=O)OC3CCCC3)CC2)c(O)cc1O [Example 17, cyclopentyl O-tert-butyl-N-(1-{[2,4-dihydroxy-5-(propan-2-yl)phenyl]carbonyl}piperidin-4-yl)-L-serinate] | 0.1 to 1 µM | < 100 nM | < 100 nM | IC50 (U937 (hCE-1 +ve) cells): 0.027 µM; Potency in U937 cells compared with CHR-7310 (U937 (hCE-1 +ve) cells; in words, relative to CHR-7310): significantly more potent; IC50 [1, 4]: 45 nM; Potency in THP-1 cells compared with CHR-7310 ([1]; in words, relative to CHR-7310): significantly more potent; IC50 (Hut78 (hCE-1 -ve) cells): 0.76 µM; Ratio of IC50's of Hut78 to U937 cells (Hut78 (hCE-1 -ve) cells): 28; Potency in Hut78 cells (Hut78 (hCE-1 -ve) cells; in words, Hut78 cells do not contain hCE-1): significantly weaker; IC50 ([2]; acid (carboxylic acid of the ester drawn), read-out: Enzyme assay: Inhibition of Hsp90 (IC50 nM)): 7 nM; IC50 [2, 5]: 42 nM; IC50 in the Hsp90 binding assay compared with CHR-7310 ([2]; in words, relative to non-ester parent CHR-7310): weaker |
| CC(C)C[C@H](NCCc1ccc2c(c1)CN(C(=O)c1cc(C(C)C)c(O)cc1O)C2)C(=O)OC1CCCC1 [Example 61, cyclopentyl N-[2-(2-{[2,4-dihydroxy-5-(propan-2-yl)phenyl]carbonyl}-2,3-dihydro-1H-isoindol-5-yl)ethyl]-L-leucinate] | 0.1 to 1 µM | 100 to 1000 nM | < 100 nM | – |
| CC(C)C[C@H](NCCc1ccc2c(c1)CN(C(=O)c1cc(C(C)C)c(O)cc1O)C2)C(=O)OC(C)(C)C [Example 62, tert-butyl N-[2-(2-{[2,4-dihydroxy-5-(propan-2-yl)phenyl]carbonyl}-2,3-dihydro-1H-isoindol-5-yl)ethyl]-L-leucinate] | > 1 µM | 100 to 1000 nM | < 100 nM | – |
| CC(C)c1cc(C(=O)N2Cc3ccc(CCNC4(C(=O)OC5CCCC5)CCCC4)cc3C2)c(O)cc1O [Example 63, cyclopentyl 1-{[2-(2-{[2,4-dihydroxy-5-(propan-2-yl)phenyl]carbonyl}-2,3-dihydro-1H-isoindol-5-yl)ethyl]amino}cyclopentanecarboxylate] | 0.1 to 1 µM | 100 to 1000 nM | < 100 nM | – |
| CC(C)C[C@H](NCCCc1ccc2c(c1)CN(C(=O)c1cc(C(C)C)c(O)cc1O)C2)C(=O)OC1CCCC1 [Example 64, cyclopentyl N-[3-(2-{[2,4-dihydroxy-5-(propan-2-yl)phenyl]carbonyl}-2,3-dihydro-1H-isoindol-5-yl)propyl]-L-leucinate] | 0.1 to 1 µM | < 100 nM | < 100 nM | – |
| CC(C)c1cc(C(=O)N2Cc3ccc(CCCNC4(C(=O)OC5CCCC5)CCCC4)cc3C2)c(O)cc1O [Example 65, cyclopentyl 1-{[3-(2-{[2,4-dihydroxy-5-(propan-2-yl)phenyl]carbonyl}-2,3-dihydro-1H-isoindol-5-yl)propyl]amino}cyclopentanecarboxylate] | 0.1 to 1 µM | 100 to 1000 nM | < 100 nM | – |
| CC(C)C[C@H](NCc1cccc(CN(C)C(=O)c2cc(C(C)C)c(O)cc2O)c1)C(=O)OC1CCCC1 [Example 66, cyclopentyl N-(3-{[{[2,4-dihydroxy-5-(propan-2-yl)phenyl]carbonyl}(methyl)amino]methyl}benzyl)-L-leucinate] | > 1 µM | 100 to 1000 nM | < 100 nM | – |
| CC(C)c1cc(C(=O)N(C)Cc2cccc(CNC(C)(C)C(=O)OC3CCCC3)c2)c(O)cc1O [Example 67, cyclopentyl N-(3-{[{[2,4-dihydroxy-5-(propan-2-yl)phenyl]carbonyl}(methyl)amino]methyl}benzyl)-2-methylalaninate] | 0.1 to 1 µM | 100 to 1000 nM | < 100 nM | – |
| CC(C)c1cc(C(=O)N(C)Cc2cccc(CNC3(C(=O)OC4CCCC4)CCCC3)c2)c(O)cc1O [Example 68, cyclopentyl 1-[(3-{[{[2,4-dihydroxy-5-(propan-2-yl)phenyl]carbonyl}(methyl)amino]methyl}benzyl)amino]cyclopentanecarboxylate] | > 1 µM | 100 to 1000 nM | < 100 nM | – |
| CC(C)c1cc(C(=O)N(C)Cc2cccc(CN[C@H](C(=O)OC3CCCC3)c3ccccc3)c2)c(O)cc1O [Example 69, cyclopentyl (2S)-[(3-{[{[2,4-dihydroxy-5-(propan-2-yl)phenyl]carbonyl}(methyl)amino]methyl}benzyl)amino](phenyl)ethanoate] | > 1 µM | > 1000 nM | 100 to 1000 nM | – |
| CC(C)C[C@H](NCc1ccc(CN(C)C(=O)c2cc(C(C)C)c(O)cc2O)cc1)C(=O)OC1CCCC1 [Example 70, cyclopentyl N-(4-{[{[2,4-dihydroxy-5-(propan-2-yl)phenyl]carbonyl}(methyl)amino]methyl}benzyl)-L-leucinate] | 0.1 to 1 µM | 100 to 1000 nM | < 100 nM | – |
| CC(C)c1cc(C(=O)N(C)Cc2ccc(CN[C@H](C(=O)OC3CCCC3)c3ccccc3)cc2)c(O)cc1O [Example 71, cyclopentyl (2S)-[(4-{[{[2,4-dihydroxy-5-(propan-2-yl)phenyl]carbonyl}(methyl)amino]methyl}benzyl)amino](phenyl)ethanoate] | 0.1 to 1 µM | 100 to 1000 nM | 100 to 1000 nM | – |
| CC(C)c1cc(C(=O)N(C)Cc2ccc(CNC(C)(C)C(=O)OC3CCCC3)cc2)c(O)cc1O [Example 72, cyclopentyl N-(4-{[{[2,4-dihydroxy-5-(propan-2-yl)phenyl]carbonyl}(methyl)amino]methyl}benzyl)-2-methylalaninate] | 0.1 to 1 µM | 100 to 1000 nM | < 100 nM | – |
| CC(C)c1cc(C(=O)N(C)Cc2ccc(CCNC(C)(C)C(=O)OC3CCCC3)cc2)c(O)cc1O [Example 73, cyclopentyl N-[2-(4-{[{[2,4-dihydroxy-5-(propan-2-yl)phenyl]carbonyl}(methyl)amino]methyl}phenyl)ethyl]-2-methylalaninate] | 0.1 to 1 µM | 100 to 1000 nM | < 100 nM | – |
| CC(C)C[C@H](NC[C@H]1CCCN1C(=O)c1cc(C(C)C)c(O)cc1O)C(=O)OC1CCCC1 [Example 74, cyclopentyl N-{[(2R)-1-{[2,4-dihydroxy-5-(propan-2-yl)phenyl]carbonyl}pyrrolidin-2-yl]methyl}-L-leucinate] | > 1 µM | > 1000 nM | 100 to 1000 nM | – |
| CC(C)C[C@H](NC[C@@H]1CCCN1C(=O)c1cc(C(C)C)c(O)cc1O)C(=O)OC1CCCC1 [Example 75, cyclopentyl N-{[(2S)-1-{[2,4-dihydroxy-5-(propan-2-yl)phenyl]carbonyl}pyrrolidin-2-yl]methyl}-L-leucinate] | > 1 µM | > 1000 nM | > 1000 nM | – |
| CC(C)C[C@@H](NC1CCN(C(=O)c2cc(C(C)C)c(O)cc2O)C1)C(=O)OC1CCCC1 (stereo partly drawn) [Example 76, cyclopentyl N-(1-{[2,4-dihydroxy-5-(propan-2-yl)phenyl]carbonyl}pyrrolidin-3-yl)-D-leucinate] | > 1 µM | > 1000 nM | < 100 nM | – |
| cyclopentyl N-(1-{[2,4-dihydroxy-5-(propan-2-yl)phenyl]carbonyl}piperidin-4-yl)-L-valinate [Example 3] | – | – | < 100 nM | IC50 [3]: > 1 µM; IC50 [1, 8]: > 1000 nM |
| cyclopentyl N-[(1-{[2,4-dihydroxy-5-(propan-2-yl)phenyl]carbonyl}piperidin-4-yl)methyl]-L-serinate [Example 33] | – | – | < 100 nM | IC50 [3]: 0.1 to 1 µM; IC50 [1, 8]: 100 to 1000 nM |

— patent publication US9321718B2 (CHROMA THERAPEUTICS LTD., priority 2010, dated 2016)
